Measured values: patent US8791099B2, “Transition metal complexes of corroles for preventing cardiovascular diseases or disorders” (Technion Research and Development Foundation Ltd., priority 2007, dated 2014)
Marks after values point to notes of the source that are not given here.

Legend:
[1] = Oxidation of DMSO by copper sulfate/ascorbate; settings: CuSO4/ascorbate as initiator; 50 μM corrole, 18 hr
Method: Reaction was initiated by adding a mixture of CuSO4 and phenanthroline (final concentration of 8 μM for each), followed by sodium ascorbate (500 μM). […]
Additional experiments were carried out by using CuSO4/ascorbate as the initiator of reactive oxygen species (by the complex Fenton-type oxidation that produces hydroxyl radical via the involvement of superoxide anion radical and hydrogen peroxide), as to bridge between the results of the small molecules and those obtained by oxidation of LDL.

[2] = tested on: Apolipoprotein E deficient mice (E^0 mice); test: Histopathology of aortic atherosclerosis lesions in E^0 mice; type: in vivo; settings: oral, drinking water 0.04 mM (0.2 mg per mouse per day), 10 weeks; for Decrease in average lesion area relative to the control group: 1-Fe: mean of the four mice with lesions
Excerpt: At the end of the experiment, the mice were sacrificed and each heart and entire aorta were rapidly dissected out from each mouse and immersion-fixed in 3% glutaraldehyde in 0.1 mol/L sodium cacodylate buffer with 0.01% calcium chloride, pH 7.4, at room temperature. The first 4 mm of the aortic arch was stained with osmium tetroxide, which colors all the lipid components a dark brown-black color thus enabling delineation of the lesion with greater accuracy. The blocks were embedded in epon resin and thin transverse sections were cut to allow greater resolution of the lesion details. The area covered by the lesion was determined by image analysis (Coleman et al., 2006).
Two of the mice receiving that treatment did actually not develop atherosclerotic lesions at all and the average lesion area for the other four mice was 60% smaller than that obtained for the control mice. These observations are much better than those obtained by other methods, including E^0 mice that were treated by natural anti-oxidants (48% reduction when consuming red wine (Hayek et al., 1997; Fuhrman et al., 1995) and 44% for pomegranate juice (Aviram et al., 2000)) or those that were intraperitoneally-treated with different synthetic catalysts for decomposition of reactive oxygen species.

[3] = Nitration of L-tyrosine by peroxynitrite; settings: pH 7.4, T=25°C, yield relative to [PN]0; PN alone 11%
Method: e) Nitration of L-tyrosine: Peroxynitrite (0.44 μmol) was reacted with 0.16 μmol of L-tyrosine in 2 mL phosphate buffer solution, pH 7.4 at T=24° C. for 5 min. The concentration of such formed nitrotyrosine was estimated by recording the 438 nm absorbance (ε=4200 M^−1cm^−1) of basified solutions (via the addition of 0.2 ml of 7.8 M NaOH).
(§1) These particular molecules were specifically chosen because they represent targets of hydroxyl radical, nitrogen dioxide, and of oxygen transfer reagents. In addition, their reaction products are easily identified and quantified by established methods.

[4] = Oxidation of deoxyribose to malonyldialdehyde by peroxynitrite; settings: pH 7.4, T=25°C, yield relative to [PN]0; PN alone 1.7%
Method: 1 mL of 2.8% trichloroacetic acid and 1 mL of 1% thiobarbituric acid in 0.1 M NaOH adjusted to pH 3.5 were sequentially added to 1 mL samples and the absorbance spectra at 532 nm due to the absorbance maximum of the MDA-thiobarbiturate product were recorded as a function of time (0-22 hr) at 24° C.
as §1

[5] = Decomposition of peroxynitrite, comparison with punicalagin; settings: for Minimal concentration required for reducing the half lifetime of peroxynitrite by 50%: calculated from rate constants
Method: For initial assessment of possible superiority of the metallocorroles relative to natural antioxidants, we have determined the effect of excess (45-135 μM) punicalagin—the active polyphenolic hydrolysable tannin ingredient of pomegranate juice (Tzulker et al., 2007), on decomposition of peroxynitrite (40 μM).

[6] = tested on: Apolipoprotein E deficient mice (E^0 mice); test: Serum total cholesterol in E^0 mice; type: in vivo; settings: drinking water 0.04 mM (0.2 mg per mouse per day), 10 weeks
Excerpt: a) For atherosclerosis evaluation: At an age of about 10 weeks, 24 E^0 mice were randomly divided into 4 groups of 6 mice each.
The sacrificed mice were also examined with regard to other factors relevant to the development of atherosclerosis.

[7] = Nitration of fluorescein by peroxynitrite; settings: pH 7.4, T=25°C, relative to [fluorescein]0; PN alone 30%
Method: The changes in fluorescein absorbance were measured on the UV/vis spectrophotometer. The yield of nitration was determined by converting absorbance to changes in concentration of fluorescein and nitrated fluorescein, using pre-determined extinction coefficients. For increased accuracy, the three wavelengths in which the largest changes in absorbance occur were used. The yields were calculated based on the initial substrate concentration.
as §1

[8] = Oxidation of tetramethylene sulfoxide to sulfolane by peroxynitrite
Method: The sulfolane was extracted into diethyl ether after 10 min of stirring and quantified by GC analysis. The same experiment was done at pH 12.7, with a reaction time of 4 hr.
as §1

LDL [9] = test: Oxidation of LDL by copper sulfate; type: biochemical, human; settings: for Increased damage (TBARS): corrole 0.5 μM
Method: Oxidation was initiated by addition of a freshly prepared CuSO4 solution (5 μM) and incubation at 37° C. under air in a shaking water bath was continued for 2 h (LDL) or 5 h (HDL). Lipoprotein oxidation was determined by measuring the amount of TBARS (Aviram et al. 2001).
Conjugated dienes formation was continuously monitored for 165 min while TBARS and lipid peroxides (Aviram et al. 2001) were measured after 15, 30, 45, 60, 75, 90, 120 and 165 minutes.
The more commonly used copper-induced LDL oxidation protocol was also applied. […] This may be appreciated from FIGS. 3A-3C, which show the time course of stepwise formation of conjugated dienes, hydroperoxides, and aldehydes (2.5 μM of metal corrole). […] The total amount of hydroperoxides rapidly reached a maximum at 45 min (due to its subsequent transformation to the final aldehyde products) and the total concentration of aldehydes was increased by a factor of 3 relative to the control experiment. […] Similar results were obtained for HDL oxidation.
The dependence of LDL oxidation on the corrole concentration was examined by analyses performed 2 hours after oxidation initiation by the copper ion (FIG. 4A).

LDL [10] = test: Interaction of LDL with corroles (absorbance before/after dialysis); type: binding, human; settings: 10 μM corrole, 100 mg LDL protein/L (0.2 μM), dialyzed against PBS
Method: The solutions where extensively dialyzed against PBS, and the electronic spectrum was measured again. The difference in the absorbance can be used to calculate the number of corrole molecules bound to LDL [HDL].
Possible interactions between the corroles and LDL were investigated prior to the examinations of the effect of the corroles on LDL oxidation. This was performed by recording the absorbance spectrum of 10 μM aqueous corrole solutions before and after addition of 100 mg of LDL protein/L (corresponding to a molar concentration of 0.2 μM). […] This large number is quite reasonable since the LDL particle is very large and may not encompass specific binding sites, but rather the amphiphilic nature of the examined corroles renders them ideal for positioning in the phospholipid monolayer of the LDL, with the hydrophilic head groups sticking out toward the aqueous phase, as previously proposed for amphiphilic porphyrins (Camejo et al., 1998; Bonneau et al., 2004). In any case, no corrole is expected to be free in solution at the maximal corrole concentration used in the forthcoming experiments, namely, 5 μM per 100 mg of LDL protein/L (about 25 corrole molecules per LDL particle).

[11] = pH 7.4, T=25°C, yield relative to [PN]0, PN alone 3.14%
[12] = pH 12.7, yield relative to [PN]0, PN alone 83%

SMILES	Inhibition of the oxidation of DMSO to malonaldehyde [1]	Decrease in average lesion area relative to the control group [2]	Yield of L-nitrotyrosine from L-tyrosine [3]	Yield of malonyldialdehyde from deoxyribose [4]	Times more effective than punicalagin in peroxynitrite decomposition [5]	Minimal concentration required for reducing the half lifetime of peroxynitrite by 50% [5]	Total serum cholesterol lower than in the control group [6]	Yield of nitrofluorescein from fluorescein [7]	Yield of sulfolane from tetramethylenesulfoxide [8, 11]	Yield of sulfolane from tetramethylenesulfoxide [8, 12]	Increased damage (TBARS) (LDL [9]; 2 hours after CuSO4)	Decrease of absorbance after dialysis (LDL [10])	further results
O=S(=O)(O)c1cc2[n]3c1C(c1c(F)c(F)c(F)c(F)c1F)=C1C=CC4=[N+]1[Mn-]31[n]3c(cc(S(=O)(=O)O)c3-2)C(c2c(F)c(F)c(F)c(F)c2F)=c2ccc([n]21)=C4c1c(F)c(F)c(F)c(F)c1F (stereo not drawn) [1-Mn, 5,10,15-tris(pentafluorophenyl)-2,17-bis(sulfonic acid)-corrolato manganese(III)]	65%	17%	0%	0%	100 times	2.5 mol %	26%	0%	0.18%	0.6%^(b)	about 150%	20%	Factor of increase of total concentration of aldehydes relative to control (LDL [9]; 2.5 μM corrole, 5 μM CuSO4): 3; Time at which total hydroperoxides reached a maximum (LDL [9]; 2.5 μM corrole, 5 μM CuSO4): 45 min; Delay in formation of conjugated dienes (LDL [9]; 2.5 μM corrole, 5 μM CuSO4, control 30 minutes): 15 min
O=S(=O)(O)c1cc2[n]3c1C(c1c(F)c(F)c(F)c(F)c1F)=C1C=CC4=[N+]1[Fe-]31[n]3c(cc(S(=O)(=O)O)c3-2)C(c2c(F)c(F)c(F)c(F)c2F)=c2ccc([n]21)=C4c1c(F)c(F)c(F)c(F)c1F (stereo not drawn) [1-Fe, 5,10,15-tris(pentafluorophenyl)-2,17-bis(sulfonic acid)-corrolato iron(III)]	completely	60%	11%	0%	5000 times	0.05 mol %	40%	4%^(a)	0.1%^	0.4%^(b)	minor increase in TBARS	10%	Mice (of six) that did not develop atherosclerotic lesions at all [2]: Two and two; Aldehydes formation after 24 hours (LDL [9]; 2.5 μM corrole, 5 μM CuSO4): no aldehydes were formed; Damage by all three criteria (conjugated dienes, hydroperoxides, aldehydes) (LDL [9]; 2.5 μM corrole, 5 μM CuSO4): practically no damage; Fold by which the manganese porphyrin concentration for 100% inhibition exceeds the 1-Fe concentration for full inhibition (LDL [9]; 100 μM vs 2.5 μM): 40 fold; Concentration giving full inhibition of LDL oxidation (LDL [9]; copper-induced LDL oxidation): 2.5 µM; Effect on TBARS formation (LDL [9]; corrole 2.5 μM and higher, 2 hours after CuSO4): complete inhibition
